Test results from US10703800B2, “Cell culture medium” (La Jolla Biologics, Inc., priority 2016, dated 2020).
Where two headings read alike, the source gives them in different places.

Key:
CHO.DXB11 cells [1] = details: high ethanol 0.144% v/v vs low ethanol 0.072% v/v fed daily, 14 day fed-batch, mAb 1
Experimental: (§1) Antibody production was performed as described above for mAb 1.
(§2) Ethanol was fed daily 0.072% (Low Ethanol) or 0.144% (High Ethanol) v/v. Calculated cumulative cell culture concentration (concentration in vessel at time of cell harvest) of ethanol ranged between 0.79%-1.58% v/v. Bioreactor physical conditions were maintained at a pH of 7.0±0.2, dissolved oxygen maintained at 30% of air saturation, temperature of 35° C. during logarithmic cellular growth phase and shifted to 31° C. during cellular production phase (temperature was shifted one day before max viable cell density was reached). Basal and feed media were fully synthetic and chemically defined containing no animal derived components.

CHO.DXB11 cells [2] = details: fed once daily, range 0.1% to 0.4% v/v
Experimental: Ethanol cytotoxicity to CHO.DXB11 cells was determined by daily feed dosing. 4 mL of CHO cells at 3 e6/mL cellular density were seeded into 6 well deep plates, mixed at 150 RPM, and fed once daily with ethanol ranging from 0.1% to 0.4% volume to volume (v/v).

CHO.DXB11 derived clone = details: ethanol 0.057% v/v fed daily vs baseline, 12 day fed-batch, mAb1
Experimental: To determine if ethanol altered mAb properties it was incorporated into fully defined and synthetic feed media and fed daily in a fed-batch process using micro—(15 mL working volume) bioreactors.
as §1
Cell line A is a CHO.DXB11 derived clone producing mAb 1. Cell line B is a different CHO.DXB11 derived clone producing mAb1. The expression cassette is identical between the two cell lines.
as §2, with “0.0%” for “0.072% (Low Ethanol)”, “0.057% v/v using microscale bioreactors and two different cellular clones producing mAb1.” for “0.144% (High Ethanol) v/v.”, “0.0%-0.51%” for “0.79%-1.58%”, “oxygen” for “oxygen maintained”, “30%” for “30% of”, “saturation and a” for “saturation,”

CHO.DXB11 cells [3] = details: 12 day fed-batch, prediction profile
Text: Ethanol was used in design of experiments (DOE) created with custom DOE design using JMP statistical software (World Wide Web.jmp.com/en_us/home.html). A response model was created using standard least squares to determine the significance of response from ethanol supplementation. Potential interactions with other supplemented components were also considered. Ethanol was fed daily between 0.0% and 0.1% using microscale bioreactors. FIG. 9 is a prediction response profile for Titer, Man5%, G0%, Acidic % and Basic % species while the change in response values for each of these is shown depicted in Table 4 below.

CHO.DG44 derived clone = details: higher ethanol concentrations (0.05%, 0.15% v/v fed daily) vs baseline, 13 day fed-batch, mAb 2
Experimental: Antibody production was performed as described above for mAb 2. This cell line is a CHO.DG44 derived clone producing mAb 2.
(§3) Ethanol was fed daily between 0.0% and 0.15% v/v. Calculated cumulative cell culture concentration (concentration in vessel at time of cell harvest) of ethanol ranged between 0.0%-1.35% v/v. Bioreactor physical conditions were maintained at a pH of 7.0±0.1 shifted to 6.8±0.1, dissolved oxygen maintained at 30% air saturation and a constant temperature of 35° C. Basal and feed media were fully synthetic and chemically defined containing no animal derived components.

CHO.DXB11 cells [4] = details: 14 day fed-batch
Experimental: as §1
as §3, with “0.018%” for “0.15%”, “0.0%-0.2%” for “0.0%-1.35%”, “7.0±0.2” for “7.0±0.1”
The same basal media was used in formulation #1 and #2. Feed formulation #1 and #2 were similar in composition containing the same type and amount of amino acids and vitamins. Salt and metal ion type and concentration were slightly varied. Both feeds were fully synthetic and chemically defined containing no animal derived components.

CHO.DXB11 cells [5] = assay: Fatty acid cytotoxicity, daily feed dosing; details: solubilized in ethanol, fed once daily, 10 μM to 160 μM
Experimental: Fatty acid cytotoxicity to CHO.DXB11 cells was determined by daily feed dosing. 4 mL of CHO cells at 4 e^6/mL cellular density were seeded into 6 well deep plates, mixed at 150 RPM, and daily fed fatty acids. Fatty acids were solubilized in ethanol and fed once daily to increase well plate concentration from 10 μM to 160 μM.

[6] = Formulation 1, ethanol 0.018% v/v fed daily vs baseline lacking ethanol
[7] = Formulation 2, ethanol 0.018% v/v fed daily vs baseline lacking ethanol

With `CCO` [Ethanol, ethanol] the “Effect on G0 glycan species” value (CHO.DXB11 cells [1]) was “less”, the “Effect on G1F glycan species” value (CHO.DXB11 cells [1]) was “greater” and the “Effect on G2F glycan species” value (CHO.DXB11 cells [1]) was “greater”. The “Effect on Man5 glycan species” value (CHO.DXB11 cells [1]) was “less”, the “Effect on high molecular weight species” value (CHO.DXB11 cells [1]) was “less” and the “Effect on low molecular weight species” value (CHO.DXB11 cells [1]) was “less”. The “Daily ethanol feeding above which cell growth rate and cell viability were negatively affected” value (CHO.DXB11 cells [2]) was “exceeded 0.3 % v/v”, the “Effect on G1F % glycan species” value (CHO.DXB11 derived clone; both cell lines (A and B)) was “increased” and the “Effect on G2F % glycan species” value (CHO.DXB11 derived clone; both cell lines (A and B)) was “increased”. For the same molecule, the “Effect on Man5% glycan species” value (CHO.DXB11 derived clone; both cell lines (A and B)) was “decreased”, the “Effect on relative amount of acidic charge variants” value (CHO.DXB11 derived clone; both cell lines (A and B)) was “decreased” and the “Effect on relative percentage of basic charge variants” value (CHO.DXB11 derived clone; both cell lines (A and B)) was “slightly increasing”. The “Effect on G0% glycan species” value (CHO.DXB11 derived clone; cell lines A and B) was “varied with respect to the cell line”, the “Effect on G0F % glycan species” value (CHO.DXB11 derived clone; cell lines A and B) was “varied with respect to the cell line” and the “Change in Acidic %” value (CHO.DXB11 cells [3]; 0.05% v/v ethanol fed daily) was −4.7%. For the same molecule, the “Change in Basic %” value (CHO.DXB11 cells [3]; 0.05% v/v ethanol fed daily) was “+1.0%”, the “Change in G0%” value (CHO.DXB11 cells [3]; 0.05% v/v ethanol fed daily) was −0.7% and the “Change in Man5%” value (CHO.DXB11 cells [3]; 0.05% v/v ethanol fed daily) was −1.9%. For the same molecule, the “Change in Titer” value (CHO.DXB11 cells [3]; 0.05% v/v ethanol fed daily) was “+2.0%”, the “Change in Acidic %” value (CHO.DXB11 cells [3]; 0.1% v/v ethanol fed daily) was −9.3% and the “Change in Basic %” value (CHO.DXB11 cells [3]; 0.1% v/v ethanol fed daily) was “+1.9%”. The “Change in G0%” value (CHO.DXB11 cells [3]; 0.1% v/v ethanol fed daily) was −1.3%, the “Change in Man5%” value (CHO.DXB11 cells [3]; 0.1% v/v ethanol fed daily) was −3.8% and the “Change in Titer” value (CHO.DXB11 cells [3]; 0.1% v/v ethanol fed daily) was “+3.9%”. For the same molecule, the “Effect on G0F glycan species” value (CHO.DG44 derived clone) was “decreased”, the “Effect on G0 glycan species” value (CHO.DG44 derived clone) was “increased” and the “Effect on G1F glycan species” value (CHO.DG44 derived clone) was “increased”. For the same molecule, the “Effect on G2F glycan species” value (CHO.DG44 derived clone) was “increased”, the “Effect on Man5 glycan species” value (CHO.DG44 derived clone) was “decreased” and the “Effect on high molecular weight species” value (CHO.DG44 derived clone) was “decreased”. For the same molecule, the “Effect on G0F glycan species” value (CHO.DXB11 cells [4]; [6]) was “less”, the “Effect on G0 glycan species” value (CHO.DXB11 cells [4]; [6]) was “less” and the “Effect on G1F glycan species” value (CHO.DXB11 cells [4]; [6]) was “increased”. The “Effect on G2F glycan species” value (CHO.DXB11 cells [4]; [6]) was “increased”, the “Effect on Man5 glycan species” value (CHO.DXB11 cells [4]; [6]) was “increased” and the “Effect on acidic charge variants” value (CHO.DXB11 cells [4]; [6]) was “less”. For the same molecule, the “Effect on basic charge variants” value (CHO.DXB11 cells [4]; [6]) was “increased”, the “Effect on G0F glycan species” value (CHO.DXB11 cells [4]; [7]) was “greater” and the “Effect on G0 glycan species” value (CHO.DXB11 cells [4]; [7]) was “decreased”. For the same molecule, the “Effect on G1F glycan species” value (CHO.DXB11 cells [4]; [7]) was “decreased”, the “Effect on G2F glycan species” value (CHO.DXB11 cells [4]; [7]) was “greater” and the “Effect on Man5 glycan species” value (CHO.DXB11 cells [4]; [7]) was “decreased”. The “Effect on acidic charge variants” value (CHO.DXB11 cells [4]; [7]) was “higher”.
With `CC/C=C\C/C=C\C/C=C\CCCCCCCC(=O)O` [linolenic acid] the “Daily feeding concentration at which the supplement became toxic” value (CHO.DXB11 cells [5]) was “around 40 μM”.
